Consider two compounds from patent publication US8604004B2, “Moenomycin analogs, methods of synthesis, and uses thereof” (President and Fellows of Harvard College, priority 2007, dated 2013).

Data set [1] has as its system S. aureus, bacterial strain 29213. The experiment in a line: MIC, standard microdilution assay, S. aureus. In kind it is cell-based. Particulars: Staphylococcus aureus, no visible growth after 35° C. for 22 h, read-out: MIC (μg/ml) S. aureus. From the text:
(§1) MIC values (μg/mL) were obtained using a standard microdilution assay.
A general note: Broth dilution looks for growth in wells or tubes with falling amounts of substance.

In data set [2] the test system is E. faecalis, bacterial strain 29212. As to the kind of experiment: MIC, standard microdilution assay, E. faecalis. In kind it is cell-based. Particulars: Enterococcus faecalis, no visible growth after 35° C. for 22 h, read-out: MIC (μg/ml) E. faecalis.
Excerpt: as §1

In a further data set the target is T1, E. faecalis PBP2a (Enterococcus faecalis, UniProt Q837Z4).
T1 sequence (Q837Z4 1-728): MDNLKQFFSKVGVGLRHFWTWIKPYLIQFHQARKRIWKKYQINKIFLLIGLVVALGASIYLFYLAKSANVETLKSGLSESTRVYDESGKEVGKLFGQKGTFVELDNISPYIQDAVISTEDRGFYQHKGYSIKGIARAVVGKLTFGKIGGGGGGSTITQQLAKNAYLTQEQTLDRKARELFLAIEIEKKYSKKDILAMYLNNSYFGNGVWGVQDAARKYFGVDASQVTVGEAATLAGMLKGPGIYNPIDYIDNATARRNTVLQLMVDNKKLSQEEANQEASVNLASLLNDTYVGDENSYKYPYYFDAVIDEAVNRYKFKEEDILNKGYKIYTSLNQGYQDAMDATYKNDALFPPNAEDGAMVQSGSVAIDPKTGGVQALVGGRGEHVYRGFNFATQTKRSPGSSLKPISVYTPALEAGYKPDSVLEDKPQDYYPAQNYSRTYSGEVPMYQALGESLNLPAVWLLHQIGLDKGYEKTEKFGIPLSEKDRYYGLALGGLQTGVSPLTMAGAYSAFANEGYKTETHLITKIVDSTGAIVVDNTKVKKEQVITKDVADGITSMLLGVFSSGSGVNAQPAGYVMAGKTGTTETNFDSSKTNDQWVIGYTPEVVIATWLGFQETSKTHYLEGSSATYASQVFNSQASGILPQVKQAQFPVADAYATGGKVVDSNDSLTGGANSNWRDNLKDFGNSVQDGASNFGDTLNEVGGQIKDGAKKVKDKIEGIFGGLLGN
The experiment in a line: IC50 for transglycosylase inhibition, E. faecalis PBP2a, [14C]-GlcNAc-labeled lipid II analogue. In kind it is biochemical. From the text: The pbp2a gene was PCR-amplified from E. faecalis (CL4877) purified genomic DNA using the following primer pair: 5′-[…] AATCTTAAACAATTTTTT-3′ (SEQ ID NO: 1) and 5′[…]-3′ (SEQ ID NO: 2). The first primer introduced a NdeI restriction site (underlined), and the second primer introduced a XhoI site into the PCR product. The PCR product was subcloned into pET42 (Novagen) for expression in E. coli BL21(DE3) (Novagen) as a C-terminal His8 fusion. PBP2a was expressed after induction of a log phase culture grown at 37° C. with 1 mM IPTG and grown at 15° C. for an additional 20 h. The cells were harvested by centrifugation, and the cell pellets were resuspended in buffer A (20 mM Tris-HCl, 150 mM NaCl, pH 7.4) supplemented with 360 kU of rLysozyme (Novagen). The cells were lysed using a French pressure cell at 16,000 psi in buffer A. Freely soluble proteins were decanted and the pellet resuspended in buffer A containing 0.5% Sarkosyl to release membrane-anchored PBP2a. […] Fractions were analyzed by 12% SDS-PAGE, pooled and concentrated using a Amicon Ultra Centrifuga Filter Device (50K MW cutoff). […]
IC50 Values for PBP2a. […] Products and starting material were separated using chromatography (isobutryic acid:1 N NH4OH=5:3) and quantitated by scintillation counting. […]

A further data set concerns bacteria. Particulars: on a molar basis, cited from earlier work.
The target of the next data set is T2, S. aureus PBP2 (Staphylococcus aureus, UniProt Q9R744).
T2 construct: made in house
T2 sequence (Q9R744 1-727): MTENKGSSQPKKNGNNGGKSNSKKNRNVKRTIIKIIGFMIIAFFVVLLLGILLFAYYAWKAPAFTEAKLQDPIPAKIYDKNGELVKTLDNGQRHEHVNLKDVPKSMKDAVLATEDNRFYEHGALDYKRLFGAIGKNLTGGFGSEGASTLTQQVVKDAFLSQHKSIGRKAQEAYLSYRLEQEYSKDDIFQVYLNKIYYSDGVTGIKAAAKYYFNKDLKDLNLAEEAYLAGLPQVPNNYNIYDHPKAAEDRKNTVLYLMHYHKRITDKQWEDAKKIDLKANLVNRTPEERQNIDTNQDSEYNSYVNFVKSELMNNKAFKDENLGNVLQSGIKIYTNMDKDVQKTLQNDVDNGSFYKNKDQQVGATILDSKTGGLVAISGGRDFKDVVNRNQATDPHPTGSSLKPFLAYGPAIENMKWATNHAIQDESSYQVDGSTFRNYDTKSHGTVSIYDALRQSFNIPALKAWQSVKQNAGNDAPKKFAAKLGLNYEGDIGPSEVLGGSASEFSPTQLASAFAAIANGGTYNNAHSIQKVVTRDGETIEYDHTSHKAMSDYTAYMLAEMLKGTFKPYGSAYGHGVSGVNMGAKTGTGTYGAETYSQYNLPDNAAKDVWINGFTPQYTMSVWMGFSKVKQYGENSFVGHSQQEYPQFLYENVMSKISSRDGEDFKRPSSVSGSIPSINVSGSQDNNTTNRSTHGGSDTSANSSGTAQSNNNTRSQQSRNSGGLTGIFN
As to the kind of experiment: IC50 for transglycosylase inhibition, S. aureus PBP2, [14C]-GlcNAc-labeled lipid II analogue. In kind it is biochemical. The protocol:
S. aureus PBP2 was over-expressed and purified as described^4,5. The IC50s for moenomycin and neryl compounds were carried out using the following reaction condition: (0-50 μM) and PBP2 (final concentration 30 nM) were incubated in Eppendorf tubes containing 9 μL of buffer [(50 mM HEPES buffer, 50 mM MOPS, 50 mM MES, 50 mM AcOH) at pH 5.0, 10 mM CaCl2, 20% DMSO (v/v), 250 unit/mL penicillin G] for 30 min. The reaction was initiated by adding 4 μM [^14C]-GlcNAc-labeled lipid II analogue^4 (specific activity=101 cpm/pmol) and quenched after 80 min with 10 μL of ice-cold 10 mM Tris (pH=8.0) containing 0.2% Triton X-100. The reaction mixture was immediately spotted on cellulose chromatography paper (3MM Whatmann). Products and starting material were separated using chromatography (isobutryic acid:1 N NH4OH=5:3) and quantitated by scintillation counting. The data were fit using Prism, as described^3,4.

The conditions of data set [3]: cited from earlier work.

Converted amounts (≈) assume the structure as drawn. Like-named read-outs stand apart in the source and are kept apart here.

Take `C=C(C/C=C(\C)CCC=C(C)C)CCC(C)(C)/C=C/CC/C(C)=C\CO[C@H](COP(=O)(O)O[C@H]1OC(C(N)=O)[C@@](C)(O)[C@H](OC(N)=O)C1O[C@@H]1OC(CO[C@@H]2OC(CO)[C@@H](O)[C@H](O)C2O)[C@@H](O[C@@H]2OC(C)[C@@H](O[C@@H]3OC(C(=O)NC4=C(O)CCC4=O)[C@H](O)[C@H](O)C3O)[C@H](O)C2NC(C)=O)[C@H](O)C1NC(C)=O)C(=O)O` (stereo partly drawn) [compound 1, Moenomycin A]: the figures for the MIC in data set [1] and in data set [2] were 0.016 µg/mL (≈ 0.0101 µM) and 0.063 µg/mL (≈ 0.0398 µM), respectively. Further, the IC50 at E. faecalis PBP2a was 26.5 nM; at S. aureus PBP2 it was 22.1 nM. Further, the “potency relative to vancomycin” value is “a thousand times more potent than the antibiotic vancomycin” in the data set on bacteria (listed as Moenomycin A) and “a thousand times more potent than vancomycin” in the data set with bacteria (listed as moenomycin A). Also, the “absorption upon oral administration” value in data set [3] (oral) is listed as “relatively poor”. Further, the pharmacokinetic properties entry in data set [3] (related to the lipid side chain) is “poor pharmacokinetic properties”.
With `CC(=O)NC1[C@H](O[C@@H]2C(CO[C@@H]3OC(CO)[C@@H](O)[C@H](O)C3O)O[C@@H](OC3[C@@H](OP(=O)(O)OC[C@@H](OC/C=C(/C)CCC=C(C)C)C(=O)O)OC(C(N)=O)[C@@](C)(O)[C@@H]3OC(N)=O)C(NC(C)=O)[C@H]2O)OC(C)[C@@H](O[C@@H]2OC(C(=O)NC3=C(O)CCC3=O)[C@H](O)[C@H](O)C2O)[C@@H]1O` (stereo partly drawn) [compound 15], the MIC in data set [1] and in data set [2] was greater than 250 µg/mL throughout. The IC50 at E. faecalis PBP2a (PBP2a 52 nM, pH 7.5, 4 μM lipid II analogue, read-out: IC50 (μg/ml) E. faecalis PBP2a (converted)) was 16 nM; against S. aureus PBP2, 41.4 nM.
